Reference: publication PMC10349806 (Nature Communications, 2023)
Values joined by “and” are separate entries in the source; they are usually repeats but may differ in a detail not shown here. Equal values may be shown once.

Assays:
PfCRT variant H97A = target: T1, PfCRT variant H97A (Plasmodium falciparum, UniProt Q9N623, A220S/H97A/I356T/K76T/M74I/N326S/N75E/Q271E/R371I); assay: CQ uptake assay, oocytes expressing H97A; assay type: cell-based
T1 sequence (Q9N623 1-424 M74I/N75E/K76T/H97A/A220S/Q271E/N326S/I356T/R371I): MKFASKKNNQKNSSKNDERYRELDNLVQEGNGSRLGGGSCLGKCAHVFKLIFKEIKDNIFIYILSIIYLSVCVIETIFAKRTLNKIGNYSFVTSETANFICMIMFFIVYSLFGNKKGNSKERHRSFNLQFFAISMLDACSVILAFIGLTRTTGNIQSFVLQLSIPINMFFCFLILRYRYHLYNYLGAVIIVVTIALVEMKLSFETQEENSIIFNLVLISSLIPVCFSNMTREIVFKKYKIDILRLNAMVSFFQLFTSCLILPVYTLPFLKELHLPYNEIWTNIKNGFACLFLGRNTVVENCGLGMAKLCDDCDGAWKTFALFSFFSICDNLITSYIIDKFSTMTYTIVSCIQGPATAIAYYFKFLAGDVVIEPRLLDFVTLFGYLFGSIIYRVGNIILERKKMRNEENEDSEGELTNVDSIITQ
Description: (§1) Site-directed mutagenesis of PfCRT^Dd2 was performed as described using the megaprimer method with overlap extension[21],[54]. The primer pairs used are listed in Supplementary Table 6. Please note that a codon-optimized and oocyte-adapted version of PfCRT^Dd2 was used[22] (Supplementary Fig. 16). The resulting DNA fragment was cloned into the SP64T expression vector and verified by sequencing.
(§2) Oocytes were obtained as described previously. Briefly, adult (>2 years old) female X. laevis frogs (NASCO) were anesthetized in a cooled solution of ethyl 3-amino benzoate methanesulfonate (0.1%, w/v), followed by a surgical removal of parts of the ovary. The ovary lobes were carefully dissected and small pieces of oocytes were incubated in Ca^2+-free ND96 buffer (96 mM NaCl, 2 mM KCl, 1 mM MgCl2 buffered with 5 mM HEPES/NaOH, pH 7.5) supplemented with collagenase D (0.1%, w/v; Roche), BSA (0.5%, w/v), and 9 mm Na2HPO4 at 18 °C for 14-16 h while gentle shaking. After incubation, the oocytes were carefully washed several times with ND96 buffer (96 mM NaCl, 2 mM KCl, 1.8 mM CaCl2, 1 mM MgCl2 buffered with 5 mM HEPES/NaOH, pH 7.5) supplemented with 100 mg l^−1 gentamycin). Defolliculated and healthy-looking stage V-VI oocytes were manually selected for RNA microinjection. The RNA was generated as following: The codon-optimized sequences of PfCRT variants were cloned into the pSP64T expression vector. After vector linearization using the restriction endonucleases BamHI or SalI (New England Biolabs), transcription was performed using the in vitro SP6 mMessage mMachine Kit (Ambion)[34]. The obtained RNA was kept at −80 °C and diluted with nuclease-free water to a concentration of 0.6 μg μl^−1. Precision-bore glass capillary tubes (3.5-inch glass capillaries; Drummond Scientific Co.) were pulled on a vertical puller (P-87 Flaming/Brown micropipette puller, Sutter Instrument Co.), graduated, and placed on a microinjector (Nanoject II Auto-Nanoliter Injector, Drummond Scientific Co.). 50 nl of nuclease-free water alone (control oocytes) or 50 nl of 0.6 μg μl^−1 RNA were injected under stereomicroscopic control. Injected oocytes were incubated for 46–72 h at 18 °C with twice-daily buffer changes before usage in experiments.
Drug uptake assays were performed as described previously[21],[22],[24],[34]. […] Oocytes that were injected with water instead of RNA were analyzed in parallel, representing the uptake of a drug by diffusion and/or endogenous permeation pathways. […] The specific PfCRT-mediated uptake was determined by subtracting the corresponding background value measured in water-injected oocytes from that of PfCRT-expressing oocytes. […]

PfCRT variant D329N = assay: CQ uptake assay, oocytes expressing D329N; assay type: cell-based, Plasmodium falciparum
Description: as §1, §2
Drug uptake assays were performed as described previously[21],[22],[24],[34]. […] The direction of radio-labeled drug transport is here from the mostly acidic extracellular solution (pH 4.5 or 6.0, as indicated) into the oocyte cytosol (pH ∼ 7.2), which corresponds to the efflux of drug from the acidic digestive vacuole (pH 5.2) into the parasite cytoplasm (pH 7.2). The topology of PfCRT in the oolemma is such that both the N- and C-terminus face the extracellular milieu[3],[22]. In the parasite, the N- and C-terminus face the lumen of the digestive vacuole. CQ uptake kinetics were performed by incubating oocytes in ND96 buffer adjusted to a pH of 4.5, 5.0, 5.5, or 6.0 and supplemented with 50 nM [^3H]CQ and one of 7 different CQ concentrations (10 µM, 50 µM, 100 µM, 200 µM, 300 µM, 400 µM, 500 µM CQ). The reaction was stopped at the 60 min time point, which is in the linear uptake range[22],[34] (Supplementary Fig. 17). […] The radioactivity of each sample was measured using a liquid scintillation analyzer Tri-Carb 4910 TR (PerkinElmer). Oocytes that were injected with water instead of RNA were analyzed in parallel, representing the uptake of a drug by diffusion and/or endogenous permeation pathways. […]

[1] = pH 4.5, single replicates, Fig 1d left
[2] = pH 6.0, single replicates, Fig 1d left
[3] = D329N, 50 µM CQ, 1 h, mean ± SEM

`CCN(CC)CCCC(C)Nc1ccnc2cc(Cl)ccc12` (stereo not drawn) [CQ, chloroquine] was tested. Which “Activity at pH 6.0” value (PfCRT variant H97A; H97A, 50 µM CQ, 1 h, mean ± SEM) did it give?
Its value is 6.57 ± 0.71 pmol h-1 oocyte-1.

What about the R-value (PfCRT variant H97A; H97A, CQ transport at pH 4.5 / pH 6.0) of the same compound?
The R-value was 0.40 and 0.40 ± 0.04.

What about the “H97A transport activity pH 4.5” value (PfCRT variant H97A; [1]) of the same compound?
Its value is 3.71 pmol oocyte-1 h-1 and 4.69 pmol oocyte-1 h-1 and 2.51 pmol oocyte-1 h-1 and 3.21 pmol oocyte-1 h-1 and 2.32 pmol oocyte-1 h-1 and 1.49 pmol oocyte-1 h-1 and 2.15 pmol oocyte-1 h-1 and 1.58 pmol oocyte-1 h-1.

And the “H97A transport activity pH 6.0” value (PfCRT variant H97A; [2])?
The value was 9.31 pmol oocyte-1 h-1 and 6.25 pmol oocyte-1 h-1 and 4.00 pmol oocyte-1 h-1 and 9.52 pmol oocyte-1 h-1 and 5.42 pmol oocyte-1 h-1 and 3.89 pmol oocyte-1 h-1 and 6.61 pmol oocyte-1 h-1 and 7.56 pmol oocyte-1 h-1.

And the “Activity at pH 4.5” value (PfCRT variant D329N; [3])?
The value was 0.39 ± 0.14 pmol h-1 oocyte-1.

What about the “Activity at pH 6.0” value (PfCRT variant D329N; [3]) of the same compound?
Its value is 1.25 ± 0.32 pmol h-1 oocyte-1.

What about the R-value (PfCRT variant D329N; D329N, CQ transport at pH 4.5 / pH 6.0) of the same compound?
The R-value was 0.32 ± 0.07.

What about the “D329N transport activity pH 4.5” value (PfCRT variant D329N; [1]) of the same compound?
The value was 0.14 pmol oocyte-1 h-1 and 0.71 pmol oocyte-1 h-1 and 0.33 pmol oocyte-1 h-1.

And the “D329N transport activity pH 6.0” value (PfCRT variant D329N; [2])?
The value was 0.49 pmol oocyte-1 h-1 and 1.49 pmol oocyte-1 h-1 and 1.76 pmol oocyte-1 h-1.
